Assay [1] relates to WT1 mRNA. To be noted: mWT1-C1498, compared with DAC treatment; cited from earlier work.
The subject of assay [2] is murine WT1-transfected C1498 (mWT1-C1498). To be noted: increasing doses; cited from earlier work.
Assay [3] relates to WT1 mRNA. The conditions noted are these: human MIAPaCa2 PC cells; cited from earlier work.
The test system of assay [4] is WT1 mRNA. The conditions noted are these: GEM-treated MIAPaCa2-bearing SCID mice; cited from earlier work.
The subject of assay [5] is allogeneic T cells. Put plainly: Mixed Lymphocyte Reaction, dendritic cells added to allogeneic T cells, tritiated thymidine. It is filed as cell-based. To be noted: cannabidiol 1 and 2 micromolar added to dendritic cells; 40,000 allogeneic T cells; 96 hours culture; FIG. 1. The procedure: (§1) Dendritic cells where added to allogeneic T cells in 96 well plates, wherein allogeneic T cells where added at 40,000 cells per plate and the indicated number of dendritic cells added. Culture was performed for 96 hours with tritiated thymidine added at the last 12 hours of culture at a concentration of 1 microcurie per well. Black bars indicate no cannabidiol added to dendritic cells, striped bars indicate 1 micro Molar and white indicate 2 micromolar. […] Results are shown in graph, FIG. 1.

Assay [6] concerns allogeneic T cells. Briefly: Mixed Lymphocyte Reaction with dendritic cells silenced for NR2F6. The conditions noted are these: increased amounts of cannabidiol added to dendritic cells silenced for NR2F6; FIG. 2. It is filed as cell-based. As for the experimental part: as §1
MLR was performed as in example 1. All cells where silenced for NR2F6. An increase in allostimulatory activity was observed. Results are shown in graph, FIG. 2.

In the case of `Nc1ncn([C@@H]2O[C@H](CO)[C@@H](O)[C@H]2O)c(=O)n1` [AZA, azacitidine], in the assay on WT1 mRNA [1], the “up-regulation of WT1 mRNA” value was “induced up-regulation of mRNA, but not to the same degree as with DAC treatment”. For the same molecule, the “number of viable cells” value in assay [2] is reported as “decreased the number of viable cells in a dose- or time-dependent manner”.
`Nc1ccn([C@@H]2O[C@H](CO)[C@@H](O)C2(F)F)c(=O)n1` [GEM, gemcitabine]: the “WT1 mRNA levels” value in the assay with WT1 mRNA [3] was “enhanced WT1 mRNA levels”. Also, the “WT1 mRNA in tumor tissue” value in the assay with WT1 mRNA [4] is on record as “increase in WT1 mRNA”.
For `C=C(C)[C@@H]1CCC(C)=C[C@H]1c1c(O)cc(CCCCC)cc1O` [cannabidiol], the “T cell activation in Mixed Lymphocyte Reaction” value in the assay on allogeneic T cells [5] is reported as “dose dependent suppression of T cell activation”. Moreover, in the assay with allogeneic T cells [6], the “allostimulatory activity in MLR” value is “dose dependent increase in allostimulatory activity”.

The values are drawn from patent publication US20210403866A1, “ENHANCED DENDRITIC CELL IMMUNE ACTIVATION BY COMBINED INHIBITION OF NR2F6 WITH CANNIBIDIOL” (Regen Biopharma, Inc., priority 2019, published 2021).
